Measurements published in paper PMC10666288, “Unveiling the Catalytic Mechanism of a Processive Metalloaminopeptidase” (Biochemistry, 2023).
Where “and” joins values, the source holds several entries; their conditions need not be identical. Equal values may be shown once.

Experiments:
[1] = biological target: T1, PaPepA (Pseudomonas aeruginosa, UniProt Q02RY8); experiment: Metal activation of Leu-pNA cleavage (metal varied, Leu-pNA fixed); type: biochemical; set-up: GG stays after cleavage) (N); made in house; host or cells: E. coli BL21(DE3); details: with 2 mM Leu-pNA
Protocol: A BMG Labtech POLARstar Omega plate reader was used for activity assays and kinetic studies involving amino acids conjugated to para-nitroaniline (pNA) (Sigma) or peptides as substrates. Assays were carried out at 25 °C in clear half-area 96-well plates (Greiner Bio-One). […] For kinetic assays investigating Leu-AMC as a substrate, a SpectraMax M2E was used. Reactions were carried out using black half-area 96-well plates with clear bottoms (Greiner Bio-One). Product formation was assessed by monitoring changes in fluorescence, with the excitation wavelength set at 341 nm and emission at 441 nm. The cutoff was 420 nm. PMT gain was set to medium, with six flashes per read. […] Calibration curves of pNA concentration vs absorbance and AMC vs fluorescence were constructed, and initial rate values were divided by the slope of these calibration curves to reveal the rate of product formation over time (Table S2).
For all assays excluding pH dependence curves, buffer conditions were as follows: 100 mM HEPES, 50 mM KCl, and pH 8.0. For assays carried out under pseudo-first-order conditions, one reaction component was fixed and in excess, while the other was varied. […] For assays involving variation of aa-pNA or aa-AMC, MnCl2 was added to a final concentration of 3 mM.

[2] = biological target: T1, PaPepA; experiment: Solvent kinetic isotope effects; type: biochemical; set-up: GG stays after cleavage) (N); made in house; host or cells: E. coli BL21(DE3); details: H2O vs 80% D2O, metal varied, Leu-pNA fixed, pH 8.0
Protocol: SKIEs were determined by plotting saturation curves in H2O or 80% D2O. […] Differences between reaction rates under initial velocity conditions were measured varying the concentration of either Leu-pNA or Mn^2+, while keeping the other component constant and in excess (at least 5× the value of KM or KACT, Scheme 2). Experiments were performed at pH 8.0 (100 mM HEPES, with 50 mM KCl). For proton inventory studies, D2O was varied from 0 to 80% in 10% increments. All proton inventory studies were carried out on the same day by using the same enzyme stock.
When calculating SKIEs, kcat and KM were obtained from the Michaelis–Menten curves in H2O. The 80% D2O Michaelis–Menten curve was fit to the following equation: [drawing 2] 2 where Fi is the fraction D2O, and EV/K and EV are the isotope effects −1 on kcat/KM and kcat, respectively.

[3] = biological target: T1, PaPepA; experiment: Isothermal titration calorimetry of metal binding; set-up: GG stays after cleavage) (N); made in house; host or cells: E. coli BL21(DE3)
Protocol: Purified PaPepA (100 μM) was buffer exchanged into ITC buffer (50 mM Tris, 140 mM NaCl, pH 7.4) using a Millipore Amicon Ultra-4 centrifugal unit (10 kDa MWCO). The protein was syringe-filtered through a […] and diluted to 50 μM. 3 mL solutions of filtered metal were also prepared. A 400 μM solution of MnCl2 and a 1 mM solution of MgCl2 were prepared by dilution of 1 M metal chloride stocks (Sigma) into ITC buffer.
Buffer, protein, and metal solutions were degassed. Following extensive washes with ITC buffer, the protein was loaded into the cell (volume 1.43 mL) of a VP-ITC (MicroCal) and MnCl2 or MgCl2 solution was loaded into the syringe (total volume 300 μL). Experiments were carried out using the following settings: temperature = 25 °C, duration = 4 s, spacing = 210 s, filter period = 2 s, for 35 injections (one injection of 2 μL followed by 34 injections of 8 μL). Data were analyzed using Origin(Pro), Version 2021 (OriginLab Corporation, Northampton, Massachusetts, USA), and MicroCal PEAQ-ITC analysis software (Malvern).

[4] = biological target: T1, PaPepA; details: degassed solutions, 3 mM MnCl2, 2 mM Leu-pNA, sodium bicarbonate 0 to 5 mM
Description: For assays investigating bicarbonate dependence, all buffers and stock solutions were extensively degassed prior to use.[25]

[5] = biological target: T1, PaPepA; experiment: biochemical
Description: MnCl2 was present in excess.
concentrations of Leucine as an inhibitor.

[6] = biological target: T1, PaPepA; experiment: Zn2+ inhibition in the pNA assay with Mn2+; type: biochemical; set-up: GG stays after cleavage) (N); made in house; host or cells: E. coli BL21(DE3)
Protocol: Figure 3 PaPepA metal binding and catalysis. (A) PaPepA activity with different divalent metals assessed through kcat/KACT. Leu-pNA was present in all assays at a concentration of 2 mM. (B) The effects of Zn^2+ and Mn^2+ preincubation, followed by extensive dialysis in metal-free buffer and subsequent addition of excess Mn^2+. (C) Michaelis–Menten plots showing inhibition of PaPepA by Zn^2+. Data were fit to a noncompetitive mixed model of inhibition. (D) Representative plots of the ITC data for titrations of MnCl2 (left) and MgCl2 (right) with PaPepA. The top panel depicts raw data, and the bottom panel depicts the resulting enthalpy changes as a function of molar addition of metal as well as the best fit to a single binding site model. (E) Plot of room-temperature EPR double integrals against Mn^2+ concentration for samples without enzyme (teal dots) and in the presence of 20 μM PaPepA (purple dots). […] (F) Frozen solution EPR spectra of PaPepA in the presence of various ratios of Mn^2+: enzyme, upper box zoomed-in data without the metal in buffer control. For panels (A), (B), and (C), data are mean ± SEM across three replicates. For Figure 3D, experiments were performed in two separate biological replicates, one shown here for illustration, and all data were acquired in Figure S11. […]

T1 sequence (Q02RY8 whole entry): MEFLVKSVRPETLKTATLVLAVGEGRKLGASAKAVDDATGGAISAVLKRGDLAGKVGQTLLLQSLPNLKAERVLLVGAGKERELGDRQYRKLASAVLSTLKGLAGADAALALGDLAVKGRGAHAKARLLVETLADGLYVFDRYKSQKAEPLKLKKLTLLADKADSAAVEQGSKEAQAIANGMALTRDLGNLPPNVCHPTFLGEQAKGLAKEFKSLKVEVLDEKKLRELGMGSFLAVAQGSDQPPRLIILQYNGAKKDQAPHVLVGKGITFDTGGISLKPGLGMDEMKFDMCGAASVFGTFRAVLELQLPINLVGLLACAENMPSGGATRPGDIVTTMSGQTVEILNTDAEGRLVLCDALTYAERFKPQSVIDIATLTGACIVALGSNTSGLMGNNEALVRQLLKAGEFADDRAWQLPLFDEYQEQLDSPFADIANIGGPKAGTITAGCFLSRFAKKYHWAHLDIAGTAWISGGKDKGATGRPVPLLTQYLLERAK

[Mg+2] [Mg^2+]
KACT ([1]; pH 8.0): 3 mM and 3.0 ± 0.7 mM
kcat ([1]; pH 8.0): 0.051 ± 0.002 s^–1
kcat/KACT ([1]; pH 8.0): 0.017 ± 0.004 s^–1mM^–1
KACT ([1]; pH 8.0, listed as MgCl2): ~3 mM
^D2Okcat [2]: 3.1 ± 0.1
^D2Okcat/KACT [2]: 2.3 ± 0.1
number of metal atoms binding the protein ([3]; ITC stoichiometry per monomer): 0.68
Kd ([3]; ITC, first line per metal: N 1, [PepA] 35.80 ± 1.5 (Mn) or 32.60 (Mg) µM, [Metal] 400.0 or 1000 µM): 1.84 ± 0.182 µM
Kd ([3]; ITC, one binding site per monomer): 2.1 ± 0.3 µM
Kd ([3]; ITC, one binding site per monomer, 25 °C, pH 7.4): 2.14 ± 0.326 µM
Kd ([3]; ITC, second line per metal: N 1, [PepA] 47.00 or 48.00 µM, [Metal] 526.5 ± 22.5 (Mn) or 1470 (Mg) µM): 2.72 ± 0.47 µM
N ([3]; ITC, third line per metal: N fitted): 0.679 ± 0.001
Kd ([3]; ITC, third line per metal: N fitted, [PepA] 47.00 or 48.00 µM, [Metal] 400.0 or 1000 µM): 1.84 ± 0.182 µM

O=C([O-])O.[Na+] [bicarbonate, sodium bicarbonate]
activation by bicarbonate (in words) [4]: not observed activation or increase in activity

CC(C)C[C@H](N)C(=O)O [leucine]
Ki [5]: 601000 nM

[Zn+2] [Zn^2+]
KACT ([1]; pH 8.0): 0.02 ± 0.01 mM
kcat ([1]; pH 8.0): 0.009 s^–1 and 0.009 ± 0.001 s^–1
kcat/KACT ([1]; pH 8.0): 0.5 ± 0.2 s^–1mM^–1
KACT ([1]; pH 8.0, as given in text): 0.02 mM
Ki ([6]; Zn^2+ and Mn^2+ both added without preincubation, noncompetitive mixed model): 12200 nM
α ([6]; noncompetitive model of inhibition): 5.6
